Reference: patent publication US6033669A, “Methods for generating cytotoxic T cells and treatment of diseases thereby” (priority 1992, dated 2000)
Non-standard residues stand in square brackets, D forms with d. Residues, ends and D or L forms follow the SMILES beside them. *: point of attachment. CH2CH2O(Galα1-4Galβ) = OC[C@H]1O[C@H](O[C@@H]2[C@H](O)[C@@H](O)[C@H](OCC*)O[C@@H]2CO)[C@H](O)[C@@H](O)[C@H]1O; X1 = OC[C@H]1O[C@H](O[C@@H]2[C@H](O)[C@@H](O)[C@H](*)O[C@@H]2CO)[C@H](O)[C@@H](O)[C@H]1O; hCys = N[C@@H](CCS)C(=O)O

Columns and labels:
[1] = test system: target cells coated with different peptides and glycopeptides; assay: Immunogenicity: mice immunized with glycopeptides, restimulated CTL tested for killing of coated target cells; assay type: in vivo; conditions: for Comments: Table 5, comment on immunogenicity and cross-reactivity of CTL
[2] = test system: monoclonal antibody Pk002; assay: ELISA recognition of Gal2 glycopeptides by monoclonal antibody Pk002; assay type: binding, mouse; conditions: antibody Pk002 (specificity Globotriaosyl Gal--Gal--Glc, CD77); peptides coated at 50 μg/ml, pH 9.6
Description: (§1) Peptides (50 μg/ml) were diluted in 0.05 M carbonate buffer (pH 9.6) and 100 μl/well was added to flat-bottomed Costar microplates (cat. No 3590) for incubation over-night at 4° C. Plates were washed once with PBS, pre-incubated with […] for 30 minutes at room temperature and washed twice with PBS/0.05% Tween buffer. Monoclonal antibodies were diluted in 0.5% gelatin/PBS/0.05% Tween, added to microplates and incubated for 2 hours at room temperaure, and flick-washed with PBS/Tween. Alkaline phosphatase conjugated rabbit anti-mouse immunoglobulins (Dakopauts code No. S 414) was diluted 1/1000 in PBS/Tween and added as 100 μl/well. After 2 hours incubation at room temperature and 4 washes with PBS/Tween, 100 μl of alkaline phosphatase substrate solution was added. Plates were read after 2 hour at room temperaure, using a Multiskan System (Lab systems), for optical density at 405 nm.

[3] = test system: monoclonal antibody MC2101; assay: ELISA recognition of Gal2 glycopeptides by monoclonal antibody MC2101; assay type: binding, mouse; conditions: antibody MC2101 (specificity Galabios Gal--Gal); peptides coated at 50 μg/ml, pH 9.6
Description: as §1
The ELISA assay was performed as described in connection with Table 4.

RMA-S cells = assay: Membrane expression of the CHO part (Gal2) by antibody staining in FACS; assay type: cell-based; conditions: data not shown
Description: Panel A: RMA-s cells were incubated for 24 hours at 26° C. to induce expression of empty D^b MHC-1 chains at the cell surface, and at 37° C., and stained for D^b expression. Panel B: Removal of D^b expression by pronase treatment of RMA-S cells, preincubated at 26° C. Pronase treatment for 2 h and 4 h. D^b removal is complete at 4 h. Panels C and E: 26° C. induced RMA-S cells were treated with the glycopeptides Gal2 -CSG11 (panel C) or Gal2 CAS10 (panel E), 300 μM for 2 h at 37° C., washed and stained for Gal2 expression. Panels D and F: Glycopeptide treated RMA-S cells as in panels C and E were pronase treated to remove Db and glycopeptide expression, washed and further incubated at 37° C. to allow re-expression of glycopeptides and stained for Gal2 expression.
When the glycopeptide bind to MHC-1, on the cell surface, the expression (and acessibility) of the corresponding CHO part, can be detected by antibody staining in FACS, as described above in relation to FIGS. 10C and E.

For F A P G h Y P A L [FAP9-5h], the Comments [1] was “Weaker, low FAP9 reactivity”.

With CSCC[C@H](NC(=O)[C@@H](NC(=O)[C@H](CCC(=O)O)NC(=O)[C@H](CCSC)NC(=O)[C@H](CC(N)=O)NC(=O)[C@H](CCC(=O)O)NC(=O)[C@H](CC(N)=O)NC(=O)[C@H](CO)NC(=O)[C@H](C)NC(=O)[C@@H](N)CSCCO[C@@H]1O[C@H](CO)[C@H](O[C@H]2O[C@H](CO)[C@H](O)[C@H](O)[C@H]2O)[C@H](O)[C@H]1O)[C@@H](C)O)C(=O)O [Gal2 -CAS10] the “Absorbance at 405 nm” value [2] was 0.04 and the “Absorbance at 405 nm” value [3] was 0.41.

With CSCC[C@H](NC(=O)[C@@H](NC(=O)[C@H](CCC(=O)O)NC(=O)[C@H](CO[C@@H]1O[C@H](CO)[C@H](O[C@H]2O[C@H](CO)[C@H](O)[C@H](O)[C@H]2O)[C@H](O)[C@H]1O)NC(=O)[C@H](CC(N)=O)NC(=O)[C@H](CCC(=O)O)NC(=O)[C@H](CC(N)=O)NC(=O)[C@H](CO)NC(=O)[C@H](C)N)[C@@H](C)O)C(=O)O [Conjugate A5N9-6S-Gal2] (H-ASNENS(X1)ETM-OH) the “expression of the Gal2 epitope on the surface of cells that have bound glycopeptides (FACS)” value (RMA-S cells) was “not recognized”.

In the case of R G Y h Y Q G L [RGY8-4h], the Comments [1] is reported as “Strong, with RGY8 reactivity”.

With “C A S N E N M E T M (CASNENMETM) [CAS10]” the “Absorbance at 405 nm” value [2] was 0.01 and the “Absorbance at 405 nm” value [3] was 0.02.

With CC(C)C[C@H](NC(=O)[C@H](CSCCO[C@@H]1O[C@H](CO)[C@H](O[C@H]2O[C@H](CO)[C@H](O)[C@H](O)[C@H]2O)[C@H](O)[C@H]1O)NC(=O)[C@H](Cc1ccc(O)cc1)NC(=O)CNC(=O)CNC(=O)[C@@H]1CCCN1C(=O)[C@H](CC(N)=O)NC(=O)[C@H](CCC(=O)O)NC(=O)[C@@H](NC(=O)CNC(=O)[C@@H](N)CO)C(C)C)C(=O)N[C@H](C(=O)O)[C@@H](C)O [SGV12-Gal2] the “expression of the Gal2 epitope on the surface of cells that have bound glycopeptides (FACS)” value (RMA-S cells) was “high Gal2 expression”, the “killing of EL-4 cells coated with glycopeptide 7 by generated CTL” value ([1]; FIG. 13) was “at a lower level” and the “killing of EL-4 cells coated with glycopeptides 2 and 5 by generated CTL” value ([1]; FIG. 13) was “killed”. For the same compound, the “recognition of carrier peptide alone (SGV12) and other control peptides by generated CTL” value ([1]; FIG. 13) was “did not recognize the carrier peptide alone” and the “type of T cell response generated by immunization” value ([1]; mouse, in vivo) was “Gal2 specific T cell response”.

“FAP9: K^b binding peptide, SEQ ID NO: 20; sequence not printed (FAPGNYPAL)” was tested, and the Comments [1] was “Strong, with high FAP9-5h reactivity”.

CC(C)C[C@H](NC(=O)CNC(=O)[C@H](CCC(N)=O)NC(=O)[C@H](Cc1ccc(O)cc1)NC(=O)[C@H](CCSCCO[C@@H]1O[C@H](CO)[C@H](O[C@H]2O[C@H](CO)[C@H](O)[C@H](O)[C@H]2O)[C@H](O)[C@H]1O)NC(=O)[C@H](Cc1ccc(O)cc1)NC(=O)CNC(=O)[C@@H](N)CCCNC(=N)N)C(=O)O [RGY8-4h-Gal2] (H-RGY[hCys](CH2CH2O(Galα1-4Galβ))YQGL-OH) was tested, and the “CTL generated, tested against EL-4 cells coated with RGY8-4 h-Gal2 and RGY8-4 h” value ([1]; FIG. 14(A)) was “both peptide and glycopeptide specific CTL cells are generated” and the “killing of EL-4 cells coated with SGV12-Gal2 or SGV12 by generated CTL” value ([1]; FIG. 14(B), criss-cross) was “only the cells coated with glycopeptide were killed”.

For CSGPSNTPPEI [CSG11], the “Absorbance at 405 nm” value [2] was 0.08 and the “Absorbance at 405 nm” value [3] was 0.01.

With RGYVYQGL [RGY8] the Comments [1] was “Some RGY8-4h reactivity”.

With CC(C)C[C@H](NC(=O)CNC(=O)[C@H](CCC(N)=O)NC(=O)[C@H](Cc1ccc(O)cc1)NC(=O)[C@@H](NC(=O)[C@H](Cc1ccc(O)cc1)NC(=O)CNC(=O)[C@H](CCCNC(=N)N)NC(=O)[C@@H](N)CSCCO[C@@H]1O[C@H](CO)[C@H](O[C@H]2O[C@H](CO)[C@H](O)[C@H](O)[C@H]2O)[C@H](O)[C@H]1O)C(C)C)C(=O)O [Gal2 -CRG9] the “expression of the Gal2 epitope on the surface of cells that have bound glycopeptides (FACS)” value (RMA-S cells) was “high Gal2 expression”.

With ASNENMDAM [pep 9(NT60)] the “lysis of virus specific and peptide-coated EL4 cells by induced CTL” value (EL4 target cells; 0.05 μM used for restimulation versus 5 μM and 0.5 μM, 100 μg s.c.) was “more efficiently lysed”, the “anti-peptide and antiviral CTL responses” value (EL4 target cells; compared with pep 9(PR8), FIG. 3) was “stronger anti-peptide and antiviral CTL responses” and the “specificity of induced CTL” value (EL4 target cells; mouse, in vivo) was “preferentially killed their corresponding peptide-coated and virus-infected cells”.
